Measured values taken from patent publication US8546529B2, “Injectable bone regeneration gel containing bone formation enhancing peptide” (Nano Intelligent Biomedical Engineering Corporation Co., …, priority 2007, dated 2013).

System: Mesodermal stem cells C2C12
Experiment: Calcification of cells by bone regeneration materials (calcein fluorescence)
Format: cell-based
Settings: C2C12 cultured for 14 days in medium for hard tissue formation containing calcein; compared with material containing no peptide
Protocol: Mesodermal stem cells C2C12 (America Type Culture Collection, CRL-1772) were cultured for 14 days, while adding the injectable bone regeneration materials prepared in Example 1 to a medium for hard tissue formation, containing calcein (fluorescent substance for calcium). The cultured osteoblasts were fixed with 2% glutaraldehyde solution. The fixed cells were treated with 1% triton X-100, and then nuclei were strained with DAPI (blue) and actins were stained with Rhodamine phalloidin (Molecular Probe, red), thus staning the cultured cells.

Sequence: YGLRSKSKKFRRPDIQYPDAT (listed as Homo sapiens) [SEQ ID NO: 6]
- calcification (calcium fluorescence deposited on extracellular matrixes): promotes calcification of cells
